The CheMixHub ionic liquid set

Assay: xn = mol fraction of the nth substance listed
Details: for electrical conductivity: 101.3 kPa

CC[n+]1ccccc1.N#C[N-]C#N + CCCO
100 kPa
Details	viscosity [mPa·s]
288.15 K, x2 = 0.1095	20.5
288.15 K, x2 = 0.1947	17.6
288.15 K, x2 = 0.8012	4.59
293.15 K, x2 = 0	22.1
293.15 K, x2 = 0.3011	13.3
293.15 K, x2 = 0.8012	4.05
298.15 K, x2 = 0.5008	7.45
298.15 K, x2 = 0.9	2.77
303.15 K, x2 = 0.4029	8.04
303.15 K, x2 = 0.702	4.19
308.15 K, x2 = 0.1947	9.87
308.15 K, x2 = 0.5008	5.9
308.15 K, x2 = 0.8012	2.92
308.15 K, x2 = 0.9	2.24
313.15 K, x2 = 0.1947	8.76
313.15 K, x2 = 0.5008	5.31
318.15 K, x2 = 0	11
318.15 K, x2 = 0.5008	4.8
318.15 K, x2 = 0.702	3.12
318.15 K, x2 = 0.9	1.84

CC[n+]1ccccc1.N#C[N-]C#N + CC(C)O
100 kPa
Details	viscosity [mPa·s]
288.15 K, x2 = 0.2997	15.1
293.15 K, x2 = 0.1055	18
298.15 K, x2 = 0.4023	9.28
303.15 K, x2 = 0.5998	5.49
308.15 K, x2 = 0.7006	3.8
308.15 K, x2 = 0.8997	2.27
313.15 K, x2 = 0	12.5
313.15 K, x2 = 0.5998	4.42
313.15 K, x2 = 0.7006	3.43
313.15 K, x2 = 0.8007	2.66
318.15 K, x2 = 0.5998	3.99
318.15 K, x2 = 0.7006	3.11

CCCCCCCC[N+](C)(CCCCCCCC)CCCCCCCC.[Br-] + CCCCCCCCCC(=O)O
100 kPa, x1 = 0.3333
Details	viscosity [mPa·s]
293 K	810
298 K	570
303 K	410
308 K	310
333 K	84

CCCCCC[n+]1ccn(C)c1.[Cl-] + OCCO
101 kPa
Details	viscosity [mPa·s]
293.15 K, x2 = 0.4977	172.9
293.15 K, x2 = 0.6002	83.9
303.15 K, x2 = 0	4206
313.15 K, x1 = 0.0188	10.05
313.15 K, x2 = 0.6987	21.31
313.15 K, x2 = 0.8897	11.47
313.15 K, x2 = 0.9642	10.19
313.15 K, x2 = 0.9761	10.09
323.15 K, x1 = 0.0061	7.09
323.15 K, x2 = 0	783
323.15 K, x2 = 0.6002	24.77
323.15 K, x2 = 0.6987	15.34
323.15 K, x2 = 0.8998	8.19
323.15 K, x2 = 0.9642	7.38
333.15 K, x1 = 0.0061	5.28
333.15 K, x2 = 0.1526	191.8
333.15 K, x2 = 0.4977	29.57
333.15 K, x2 = 0.6987	11.45
333.15 K, x2 = 0.9532	5.61

CCCCCC[n+]1ccn(C)c1.[Cl-] + CN1CCCC1=O
100 kPa
Details	viscosity [mPa·s]
293.15 K, x2 = 0.4223	288
298.15 K, x2 = 0.2211	1042
298.15 K, x2 = 0.3181	467
298.15 K, x2 = 0.5271	92.7
298.15 K, x2 = 0.718	19.13
298.15 K, x2 = 0.8139	8.49
303.15 K, x2 = 0.4223	152
308.15 K, x2 = 0.2211	481
308.15 K, x2 = 0.718	13.69
308.15 K, x2 = 0.8139	6.46
313.15 K, x2 = 0.6327	21.54
313.15 K, x2 = 0.718	11.59
313.15 K, x2 = 0.9083	2.78
323.15 K, x2 = 0.3181	102.2
323.15 K, x2 = 0.4223	54.5
328.15 K, x2 = 0.4223	44.4
328.15 K, x2 = 0.718	7.66
333.15 K, x2 = 0.9083	2.041

CCCCCCCCCCCCCC[P+](CCCC)(CCCC)CCCC.CCCCCCCCCCCCc1ccc(S(=O)(=O)[O-])cc1 + O
100 kPa
Details	viscosity [mPa·s]
323.15 K, x1 = 0.3453	116
353.15 K, x1 = 0.892	148

CC[n+]1ccccc1.N#C[N-]C#N + CCO
100 kPa
Details	viscosity [mPa·s]
288.15 K, x2 = 0	25.9
288.15 K, x2 = 0.1008	21.3
293.15 K, x2 = 0.1008	17.9
298.15 K, x2 = 0	18.9
298.15 K, x2 = 0.1974	12.4
298.15 K, x2 = 0.3008	10.3
298.15 K, x2 = 0.7999	2.54
303.15 K, x2 = 0.9011	1.69
308.15 K, x2 = 0.5058	5.17
313.15 K, x2 = 0.3994	5.99
313.15 K, x2 = 0.5058	4.69
313.15 K, x2 = 0.5994	3.74
313.15 K, x2 = 0.6996	2.92
318.15 K, x2 = 0.1008	8.97
318.15 K, x2 = 0.3994	5.44

c1c[nH]cn1 + CC[n+]1ccn(C)c1.[Cl-]
298.2 K, 100 kPa
Details	viscosity [mPa·s]
x2 = 0.25	38.7
x2 = 0.5	82.5

CCCCCCCCCn1cc[n+](C)c1.O=S(=O)([N-]S(=O)(=O)C(F)(F)F)C(F)(F)F + O
100 kPa, x2 = 0.1736
Details	viscosity [mPa·s]
298.15 K	72.66
308.15 K	46.59
318.15 K	31.72
323.15 K	26.65
358.15 K	10.15
363.15 K	9.09

CC[n+]1ccn(C)c1.O=S(=O)([O-])C(F)(F)C(F)F + CCCC[n+]1ccc(C)cc1.O=S(=O)([N-]S(=O)(=O)C(F)(F)F)C(F)(F)F
100 kPa
Details	viscosity [mPa·s]
293.15 K, x2 = 0.2211	111.1
293.15 K, x2 = 0.3324	106.5
293.15 K, x2 = 0.4432	101
293.15 K, x2 = 0.774	84.5
303.15 K, x2 = 0.3324	66.1
303.15 K, x2 = 0.9517	47.6
313.15 K, x2 = 0.0504	47.7
313.15 K, x2 = 0.112	47
313.15 K, x2 = 0.4432	41.7
313.15 K, x2 = 0.6631	37.5
323.15 K, x2 = 0.4432	29.2
333.15 K, x2 = 0.4432	21.5
333.15 K, x2 = 0.5529	20.3
333.15 K, x2 = 0.6631	19.5
343.15 K, x2 = 0.0504	18.2
353.15 K, x2 = 0.774	10.9
353.15 K, x2 = 0.8828	10.3

CCCCCC[n+]1ccn(C)c1.[Cl-] + O
viscosity [mPa·s], 100 kPa
Details	x1 = 8.613e-05	x1 = 0.0001839	x1 = 0.0003576	x1 = 0.0005405	x1 = 0.000744	x1 = 0.0009399	x1 = 0.001103	x1 = 0.001379	x1 = 0.001677
278.15 K	1.531	1.539	1.551	1.562	1.573	1.585	1.596	1.613	1.641
283.15 K	1.314	1.32	1.329	1.337	1.348	1.358	1.369	1.381	1.401
288.15 K	1.145	1.15	1.158	1.166	1.174	1.181	1.188	1.2	1.219
293.15 K	1.008	1.013	1.019	1.025	1.033	1.039	1.044	1.054	1.069
298.15 K	–	0.899	0.905	0.911	0.917	0.922	0.928	0.936	0.949
303.15 K	0.802	0.805	0.81	0.815	0.82	0.825	0.829	0.836	0.847
308.15 K	0.723	0.726	0.73	0.734	0.739	0.743	0.747	0.753	0.762
313.15 K	0.656	0.659	0.662	0.666	0.67	0.673	0.677	0.683	0.691

298.15 K
Details	electrical conductivity [S/m]
x1 = 4.23e-06	0.00276
x1 = 7.11e-06	0.00451
x1 = 1.01e-05	0.00631
x1 = 1.293e-05	0.008
x1 = 1.551e-05	0.00953
x1 = 1.836e-05	0.01121
x1 = 2.116e-05	0.0129
x1 = 2.393e-05	0.0145
x1 = 2.652e-05	0.016
x1 = 2.919e-05	0.0175
